Experimental data reported in the supplement of paper PMC11451515.

System: P12-Ichikawa
Assay: cell viability relative to DMSO control; higher = less cytotoxic
Conditions: 48 h
Summary of the method: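 Viability is a per-plate percentage relative to DMSO wells, with cell-free wells as background. CellTiter-Glo One luminescence was read after 48 h at 37°C on 1536-well plates (5 μl) of NOMO1 or SEM (500 cells/well) or P12-Ichikawa (1000 cells/well) leukemia cells. The cells had been adapted for at least four passages in each medium and pin-dosed with library compounds in DMSO from 47 μM to 0.79 nM in 11 threefold steps.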

[1] = HPLM + 10% dialyzed FBS, 0.000781 µM
[2] = HPLM + 10% dialyzed FBS, 0.00234 µM
[3] = HPLM + 10% dialyzed FBS, 0.00702 µM
[4] = HPLM + 10% dialyzed FBS, 0.0211 µM
[5] = HPLM + 10% dialyzed FBS, 0.0632 µM
[6] = HPLM + 10% dialyzed FBS, 0.19 µM
[7] = HPLM + 10% dialyzed FBS, 0.569 µM
[8] = HPLM + 10% dialyzed FBS, 1.71 µM
[9] = HPLM + 10% dialyzed FBS, 5.12 µM
[10] = HPLM + 10% dialyzed FBS, 15.4 µM
[11] = HPLM + 10% dialyzed FBS, 46.1 µM
[12] = RPMI 5 mM glucose + 10% FBS, 0.000781 µM
[13] = RPMI 5 mM glucose + 10% FBS, 0.00234 µM
[14] = RPMI 5 mM glucose + 10% FBS, 0.00702 µM
[15] = RPMI 5 mM glucose + 10% FBS, 0.0211 µM
[16] = RPMI 5 mM glucose + 10% FBS, 0.0632 µM
[17] = RPMI 5 mM glucose + 10% FBS, 0.19 µM
[18] = RPMI 5 mM glucose + 10% FBS, 0.569 µM
[19] = RPMI 5 mM glucose + 10% FBS, 1.71 µM
[20] = RPMI 5 mM glucose + 10% FBS, 5.12 µM
[21] = RPMI 5 mM glucose + 10% FBS, 15.4 µM
[22] = RPMI 5 mM glucose + 10% FBS, 46.1 µM
[23] = RPMI 5 mM glucose + 10% dialyzed FBS, 0.000781 µM
[24] = RPMI 5 mM glucose + 10% dialyzed FBS, 0.00234 µM
[25] = RPMI 5 mM glucose + 10% dialyzed FBS, 0.00702 µM
[26] = RPMI 5 mM glucose + 10% dialyzed FBS, 0.0211 µM
[27] = RPMI 5 mM glucose + 10% dialyzed FBS, 0.0632 µM
[28] = RPMI 5 mM glucose + 10% dialyzed FBS, 0.19 µM
[29] = RPMI 5 mM glucose + 10% dialyzed FBS, 0.569 µM
[30] = RPMI 5 mM glucose + 10% dialyzed FBS, 1.71 µM
[31] = RPMI 5 mM glucose + 10% dialyzed FBS, 5.12 µM
[32] = RPMI 5 mM glucose + 10% dialyzed FBS, 15.4 µM
[33] = RPMI 5 mM glucose + 10% dialyzed FBS, 46.1 µM

C=C1C(=O)[C@@]23C(CC[C@@H]1[C@H]2O)[C@@]12CO[C@]3(O)[C@@H](O)[C@@H]1C(C)(C)CC[C@@H]2O (stereo partly specified)
cell viability [1]: 108%
cell viability [2]: 119%
cell viability [3]: 120%
cell viability [4]: 123%
cell viability [5]: 122%
cell viability [6]: 115%
cell viability [7]: 113%
cell viability [8]: 112%
cell viability [9]: 89.1%
cell viability [10]: 44.7%
cell viability [11]: 3.48%
cell viability [12]: 116%
cell viability [13]: 116%
cell viability [14]: 119%
cell viability [15]: 119%
cell viability [16]: 132%
cell viability [17]: 118%
cell viability [18]: 113%
cell viability [19]: 95.5%
cell viability [20]: 85.7%
cell viability [21]: 16.6%
cell viability [22]: 3.61%
cell viability [23]: 116%
cell viability [24]: 117%
cell viability [25]: 126%
cell viability [26]: 123%
cell viability [27]: 125%
cell viability [28]: 124%
cell viability [29]: 111%
cell viability [30]: 105%
cell viability [31]: 75.6%
cell viability [32]: 21.9%
cell viability [33]: 3.49%

COc1cc2ncn(-c3cc(OCc4ccccc4[S+](C)(=O)[O-])c(C#N)s3)c2cc1OC
cell viability [1]: 101%
cell viability [2]: 100%
cell viability [3]: 93.8%
cell viability [4]: 94%
cell viability [5]: 102%
cell viability [6]: 95.2%
cell viability [7]: 96.7%
cell viability [8]: 94.1%
cell viability [9]: 84.5%
cell viability [10]: 92%
cell viability [11]: 77.5%
cell viability [12]: 96.3%
cell viability [13]: 99%
cell viability [14]: 96.8%
cell viability [15]: 97.8%
cell viability [16]: 100%
cell viability [17]: 95.3%
cell viability [18]: 94.4%
cell viability [19]: 89.7%
cell viability [20]: 88.7%
cell viability [21]: 91.3%
cell viability [22]: 87.6%
cell viability [23]: 90.1%
cell viability [24]: 92.3%
cell viability [25]: 87.7%
cell viability [26]: 94.9%
cell viability [27]: 94.8%
cell viability [28]: 98%
cell viability [29]: 95.4%
cell viability [30]: 92.5%
cell viability [31]: 82.7%
cell viability [32]: 80%
cell viability [33]: 73.6%
